Drawing on patent publication US20260022143A1, “Cyclic Peptide Inhibitors of IL-23” (JANSSEN PHARMACEUTICA NV, priority 2022, published 2026), this text covers EPSA and IC50 for nine compounds.

Starred links: 1 amine or outer side, 2 acyl side, 3 side chain; linkers in the order of their positions; H or OH if unused. Positions of bridges follow the written chain, without caps; N, C: chain ends. Non-standard residues stand in square brackets, D forms with d. Residues, ends and D or L forms follow the SMILES beside them. ξ: configuration not given here. *: point of attachment. Trp(7-(3-AcNH-Ph)) = CC(=O)Nc1cccc(-c2cccc3c(C[C@H](N)C(=O)O)c[nH]c23)c1; X41 = C[N+]1(CCCCCCCc2cn(-c3ccc(C[C@H](N[*:1])C(=O)[*:2])cc3)nn2)CCOCC1; Me3N+(CH2)2O(CH2)2O(CH2)2CO = C[N+](C)(C)CCOCCOCCC(=O)*; CH2CH2OCH2CH2OCH2CH2NMe3+ = C[N+](C)(C)CCOCCOCC*; Trp(7-Me) = Cc1cccc2c(C[C@H](N)C(=O)O)c[nH]c12; Abu(4-yl) = O=C([C@H](CC[*:3])N[*:1])[*:2]; 3Pal(5-Me) = Cc1cncc(C[C@H](N)C(=O)O)c1; 2Nal = N[C@@H](Cc1ccc2ccccc2c1)C(=O)O; AEF = NCCOc1ccc(C[C@H](N)C(=O)O)cc1; 3Pal = N[C@@H](Cc1cccnc1)C(=O)O; Ethyl(2-guanidino) = N=C(N)NCC*; Lys(Me) = CNCCCC[C@H](N)C(=O)O; Pen = CC(C)(S)[C@H](N)C(=O)O; ξLys(Me) = CNCCCCC(N)C(=O)O; αMeC = C[C@](N)(CS)C(=O)O; Thp = NC1(C(=O)O)CCOCC1; X3 = C[N+](C)(C)CCCCC*; Sar = CNCC(=O)O

A short description of series [1]: Exposed Polar Surface Area (EPSA). It is filed as physicochemical. Particulars: SFC on Chirex 3014 column; sample 1 mM DMSO stock; read-out: EPSA. In a few lines:
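EPSA, in Å^2, is read from SFC retention time through a linear relationship established with eight calibration standards. Separation uses a Chirex 3014 stationary phase, 35 °C, 14 MPa back pressure, and a 5–60% methanol/ammonium formate modifier gradient in CO2.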

The next series has as its target T1, IL-23R (Homo sapiens, UniProt Q5VWK5).
T1 construct: host or cells: HEK293
T1 sequence (Q5VWK5 24-629): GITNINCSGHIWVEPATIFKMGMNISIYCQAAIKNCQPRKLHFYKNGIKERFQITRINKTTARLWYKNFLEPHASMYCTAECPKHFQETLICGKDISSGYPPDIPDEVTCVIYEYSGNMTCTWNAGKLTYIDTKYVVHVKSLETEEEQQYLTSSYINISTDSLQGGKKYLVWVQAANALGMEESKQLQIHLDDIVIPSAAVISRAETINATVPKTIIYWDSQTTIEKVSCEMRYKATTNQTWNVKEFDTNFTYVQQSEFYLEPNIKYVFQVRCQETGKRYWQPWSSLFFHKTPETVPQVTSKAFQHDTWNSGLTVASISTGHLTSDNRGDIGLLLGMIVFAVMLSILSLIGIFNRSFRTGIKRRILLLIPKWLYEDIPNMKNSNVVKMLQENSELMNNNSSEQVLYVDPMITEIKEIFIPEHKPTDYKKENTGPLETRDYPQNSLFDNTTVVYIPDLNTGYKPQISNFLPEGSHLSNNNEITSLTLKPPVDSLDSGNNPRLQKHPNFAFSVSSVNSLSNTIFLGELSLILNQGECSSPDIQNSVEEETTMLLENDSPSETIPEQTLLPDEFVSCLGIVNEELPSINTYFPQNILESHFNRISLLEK
Description: IL23R Reporter Assay. The conditions noted are these: HEK293 cells containing IL-23R, IL-12RP1 and STAT-inducible firefly luciferase reporter; 10 ng/mL IL-23 (EC90); 5 h at 37° C.; read-out: IL23R Reporter Assay. The class given is cell-based. A general note: A reporter such as luciferase makes a cellular process visible.

As to `CC(=O)N(C)CCCC[C@H](NC(=O)[C@H](C)NC(=O)[C@H](Cc1ccc2ccccc2c1)NC(=O)[C@H](Cc1ccc(OCCOCCOCC[N+](C)(C)C)cc1)NC(=O)[C@H]1NC(=O)[C@H](C)NC(=O)[C@H](Cc2c[nH]c3c(C)cccc23)NC(=O)[C@H]([C@@H](C)O)NC(=O)[C@H](C)NC(=O)[C@@H](NC(=O)CCOCCOCC[N+](C)(C)C)C(C)(C)SSC1(C)C)C(=O)N[C@@H](CC(N)=O)C(=O)N[C@@H](Cc1cccnc1)C(=O)N(C)CC(=O)N(C)C` [compound 468, cPEG3aCO-Pen(3)-A-T-7MeW-A-Pen(3)-APEG3f-2Nal-A-K(NMeAc)-N-3Pya-Sar-CON(Me)2] ({Me3N+(CH2)2O(CH2)2O(CH2)2CO}-[Pen]AT[Trp(7-Me)]A[Pen]Y(CH2CH2OCH2CH2OCH2CH2NMe3+)[2Nal]A[Lys(Me)](Ac)N[3Pal][Sar]-NMe2; disulfide 1-6), the EPSA in series [1] is 151 A^2. The IC50 at IL-23R worked out at 25 nM.

Turning to `CC(=O)N(C)CCCC[C@@H]1NC(=O)[C@H](Cc2c[nH]c3c(C)cccc23)NC(=O)[C@H]([C@@H](C)O)NC(=O)[C@H](CC(=O)N(C)C)NC(=O)[C@@H](NC(=O)CCOCCOCC[N+](C)(C)C)C(C)(C)SSC(C)(C)[C@@H](C(=O)N[C@@H](Cc2ccc(OCCOCCOCC[N+](C)(C)C)cc2)C(=O)N[C@@H](Cc2ccc3ccccc3c2)C(=O)NC2(C(=O)N[C@@H](Cc3ccccc3)C(=O)N[C@@H](CC(N)=O)C(=O)N[C@@H](Cc3cccnc3)C(=O)N(C)CC(=O)N(C)C)CCOCC2)NC1=O` [compound 469, cPEG3aCO-Pen(3)-N(N(Me)2)-T-7MeW-K(NMeAc)-Pen(3)-APEG3F-2Nal-THP-F-N-3Pya-Sar-CON(Me)2] ({Me3N+(CH2)2O(CH2)2O(CH2)2CO}-[Pen]D(NMe2)T[Trp(7-Me)][Lys(Me)](Ac)[Pen]Y(CH2CH2OCH2CH2OCH2CH2NMe3+)[2Nal][Thp]FN[3Pal][Sar]-NMe2; disulfide 1-6), the EPSA in series [1] was 156 A^2. At IL-23R, the IC50 amounted to 2.1 nM.

For `CC(=O)N(C)CCCC[C@@H]1NC(=O)[C@H](Cc2c[nH]c3c(C)cccc23)NC(=O)[C@H]([C@@H](C)O)NC(=O)[C@H](CC(=O)N(C)C)NC(=O)[C@@H](NC(=O)CCOCCOCC[N+](C)(C)C)C(C)(C)SSC(C)(C)[C@@H](C(=O)N[C@@H](Cc2ccc(OCCOCCOCC[N+](C)(C)C)cc2)C(=O)N[C@@H](Cc2ccc3ccccc3c2)C(=O)NC2(C(=O)N[C@@H](Cc3c[nH]c4ccccc34)C(=O)N[C@@H](CC(N)=O)C(=O)N[C@@H](Cc3cccnc3)C(=O)N(C)CC(=O)N(C)C)CCOCC2)NC1=O` [compound 470, cPEG3aCO-Pen(3)-N(N(Me)2)-T-7MeW-K(NMeAc)-Pen(3)-APEG3F-2Nal-THP-W-N-3Pya-Sar-CON(Me)2] ({Me3N+(CH2)2O(CH2)2O(CH2)2CO}-[Pen]D(NMe2)T[Trp(7-Me)][Lys(Me)](Ac)[Pen]Y(CH2CH2OCH2CH2OCH2CH2NMe3+)[2Nal][Thp]WN[3Pal][Sar]-NMe2; disulfide 1-6), the EPSA in series [1] came out at 160 A^2. For the same compound, on IL-23R, the IC50 turned out to be 1.2 nM.

On to `CC(=O)NCCCC[C@@H]1NC(=O)[C@H](Cc2c[nH]c3c(C)cccc23)NC(=O)[C@H]([C@@H](C)O)NC(=O)[C@H](CC(N)=O)NC(=O)[C@@H](NC(=O)CCOCCOCC[N+](C)(C)C)C(C)(C)SSC(C)(C)[C@@H](C(=O)N[C@@H](Cc2ccc(OCCNC(=N)N)cc2)C(=O)N[C@@H](Cc2ccc3ccccc3c2)C(=O)NC2(C(=O)N[C@@H](CCCCNC(C)=O)C(=O)N[C@@H](CC(N)=O)C(=O)N[C@@H](Cc3cccnc3)C(=O)N(C)CC(N)=O)CCOCC2)NC1=O` [compound 471, cPEG3aCO-Pen(3)-N-T-7MeW-K(Ac)-Pen(3)-AEF(G)-2Nal-THP-K(Ac)-N-3Pya-Sar-CONH2] ({Me3N+(CH2)2O(CH2)2O(CH2)2CO}-[Pen]NT[Trp(7-Me)]K(Ac)[Pen]Y(Ethyl(2-guanidino))[2Nal][Thp]K(Ac)N[3Pal][Sar]-NH2; disulfide 1-6), for which the EPSA in series [1] came out at 174 A^2. Also, the IC50 on IL-23R came to 0.69 nM.

For the compound `CC(=O)NCCCC[C@@H]1NC(=O)[C@H](Cc2c[nH]c3c(C)cccc23)NC(=O)[C@H]([C@@H](C)O)NC(=O)[C@H](CC(N)=O)NC(=O)[C@@H](NC(=O)[C@@H](CCCNC(=N)N)NC(=O)CCOCCOCC[N+](C)(C)C)C(C)(C)SSC(C)(C)[C@@H](C(=O)N[C@@H](Cc2ccc(OCCN)cc2)C(=O)N[C@@H](Cc2ccc3ccccc3c2)C(=O)NC2(C(=O)N[C@@H](CCC(=O)O)C(=O)N[C@@H](CC(N)=O)C(=O)N[C@@H](Cc3cncc(C)c3)C(=O)N(C)CC(N)=O)CCOCC2)NC1=O` [compound 473, cPEG3aCO-r-Pen(3)-N-T-7MeW-K(Ac)-Pen(3)-AEF-2Nal-THP-E-N-5MePyridinAla-Sar-CONH2] ({Me3N+(CH2)2O(CH2)2O(CH2)2CO}-[dR][Pen]NT[Trp(7-Me)]K(Ac)[Pen][AEF][2Nal][Thp]EN[3Pal(5-Me)][Sar]-NH2; disulfide 2-7), in series [1], the EPSA was 202 A^2. Besides, the IC50 at IL-23R amounted to 12 nM.

As to `CC(=O)N(C)CCCCC(NC(=O)C1(NC(=O)[C@H](Cc2ccc3ccccc3c2)NC(=O)[C@H](Cc2ccc(OCCOCCOCC[N+](C)(C)C)cc2)NC(=O)[C@@H]2CCSC[C@H](NC(=O)CCOCCOCC[N+](C)(C)C)C(=O)N[C@@H](CC(=O)N(C)C)C(=O)N[C@@H]([C@@H](C)O)C(=O)N[C@@H](Cc3c[nH]c4c(C)cccc34)C(=O)N[C@@H](CCCCN(C)C(C)=O)C(=O)N2)CCOCC1)C(=O)N[C@@H](CC(N)=O)C(=O)N[C@@H](Cc1ccccc1)C(=O)N(C)CC(=O)N(C)C` (stereo partly drawn) [compound 475, cPEG3aCO-Abu(1)-N(N(Me)2)-T-7MeW-K(NMeAc)-C(1)-APEG3F-2Nal-THP-K(NMeAc)-N-F-Sar-CON(Me)2] ({Me3N+(CH2)2O(CH2)2O(CH2)2CO}-CD(NMe2)T[Trp(7-Me)][Lys(Me)](Ac)[Abu(4-yl)]Y(CH2CH2OCH2CH2OCH2CH2NMe3+)[2Nal][Thp][ξLys(Me)](Ac)NF[Sar]-NMe2; thioether 1-6), the EPSA in series [1] amounted to 153 A^2. The IC50 on IL-23R came to 1540 nM.

For `CC(=O)N(C)CCCCC(NC(=O)C1(NC(=O)[C@H](Cc2ccc3ccccc3c2)NC(=O)[C@H](Cc2ccc(OCCOCCOCC[N+](C)(C)C)cc2)NC(=O)[C@@H]2CSCC[C@H](NC(=O)CCOCCOCC[N+](C)(C)C)C(=O)N[C@@H](CC(=O)N(C)C)C(=O)N[C@@H]([C@@H](C)O)C(=O)N[C@@H](Cc3c[nH]c4c(C)cccc34)C(=O)N[C@@H](CCCCN(C)C(C)=O)C(=O)N2)CCOCC1)C(=O)N[C@@H](CC(N)=O)C(=O)N[C@@H](C)C(=O)N(C)CC(=O)N(C)C` (stereo partly drawn) [compound 476, cPEG3aCO-Abu(1)-N(N(Me)2)-T-7MeW-K(NMeAc)-C(1)-APEG3F-2Nal-THP-K(NMeAc)-N-A-Sar-CON(Me)2] ({Me3N+(CH2)2O(CH2)2O(CH2)2CO}-[Abu(4-yl)]D(NMe2)T[Trp(7-Me)][Lys(Me)](Ac)CY(CH2CH2OCH2CH2OCH2CH2NMe3+)[2Nal][Thp][ξLys(Me)](Ac)NA[Sar]-NMe2; thioether 1-6), the EPSA in series [1] came out at 155 A^2. Moreover, the IC50 at IL-23R is greater than 2590 nM.

`CC(=O)NCCCC[C@@H]1NC(=O)[C@H](Cc2c[nH]c3c(-c4cccc(NC(C)=O)c4)cccc23)NC(=O)[C@H]([C@@H](C)O)NC(=O)[C@H](CC(N)=O)NC(=O)[C@@H](NC(C)=O)CCSC[C@@](C)(C(=O)N[C@@H](Cc2ccc(OCCCCC[N+](C)(C)C)cc2)C(=O)N[C@@H](Cc2ccc3ccccc3c2)C(=O)NC2(C(=O)N[C@@H](CCCCNC(C)=O)C(=O)N[C@@H](CC(N)=O)C(=O)N[C@@H](Cc3cccnc3)C(=O)N(C)CC(N)=O)CCOCC2)NC1=O` [compound 477, MeCO-Abu(1)-N-T-7(3NAcPh)W-K(Ac)-aMeC(1)-TMAPF-2Nal-THP-K(Ac)-N-3Pya-Sar-CONH2] (Ac-[Abu(4-yl)]NT[Trp(7-(3-AcNH-Ph))]K(Ac)[αMeC]Y(X3)[2Nal][Thp]K(Ac)N[3Pal][Sar]-NH2; thioether 1-6): the EPSA in series [1] worked out at 166 A^2. Further, the IC50 at IL-23R is 6.1 nM.

As to `CC(=O)N(C)CCCC[C@@H]1NC(=O)[C@H](Cc2c[nH]c3c(C)cccc23)NC(=O)[C@H]([C@@H](C)O)NC(=O)[C@H](CC(=O)N(C)C)NC(=O)[C@@H](NC(=O)CCOCCOCC[N+](C)(C)C)C(C)(C)SSC(C)(C)[C@@H](C(=O)N[C@@H](Cc2ccc(-n3cc(CCCCCCC[N+]4(C)CCOCC4)nn3)cc2)C(=O)N[C@@H](Cc2ccc3ccccc3c2)C(=O)NC2(C(=O)N[C@@H](CCCCN(C)C(C)=O)C(=O)N[C@@H](CC(N)=O)C(=O)N[C@@H](Cc3cccnc3)C(=O)N(C)CC(=O)N(C)C)CCOCC2)NC1=O` [compound 479, cPEG3aCO-Pen(3)-N(N(Me)2)-T-7MeW-K(NMeAc)-Pen(3)-F(4TzIMMo7)-2Nal-THP-K(NMeAc)-N-3Pya-Sar-CON(Me)2] ({Me3N+(CH2)2O(CH2)2O(CH2)2CO}-[Pen]D(NMe2)T[Trp(7-Me)][Lys(Me)](Ac)[Pen][X41][2Nal][Thp][Lys(Me)](Ac)N[3Pal][Sar]-NMe2; disulfide 1-6), in series [1], the EPSA stood at 158 A^2. The IC50 at IL-23R was 3.4 nM.
